Reference: ChEMBL document CHEMBL1772993, “Design and synthesis of novel N-hydroxy-dihydronaphthyridinones as potent and orally bioavailable HIV-1 integrase inhibitors” (J Med Chem, 2011)

Experiment: Clearance in dog
Assay type: ADME, organism-based, Canis lupus familiaris
Conditions: in vivo
Work on `CN(O)C(=O)c1cc2c(CN3CCC[C@H]3C(N)=O)cn(Cc3ccc(F)cc3)c2cn1` yielded a clearance of 0.9 L/h/kg.

Experiment: Clearance in dog at 1 mg/kg, iv and 4.2 mg/kg, po
Assay type: ADME, organism-based, Canis lupus familiaris
Conditions: in vivo
Work on `O=C1c2ncc3c(c(CN4CCCCC4)cn3Cc3ccc(F)cc3)c2CCN1O` yielded a clearance of 1.8 L/h/kg.

Experiment: Oral bioavailability in dog at 4.2 mg/kg
Assay type: ADME, organism-based, Canis lupus familiaris
Conditions: in vivo
`O=C1c2ncc3c(c(CN4CCCCC4)cn3Cc3ccc(F)cc3)c2CCN1O` gave a bioavailability of 33%.

Experiment: Half life in dog at 1 mg/kg, iv and 4.2 mg/kg, po
Assay type: ADME, organism-based, Canis lupus familiaris
Conditions: in vivo
`O=C1c2ncc3c(c(CN4CCCCC4)cn3Cc3ccc(F)cc3)c2CCN1O` gave a half-life of 2.6 h.

Experiment: Octanol-buffer distribution coefficient, log D of the compound at pH 7.4
Assay type: physicochemical
Conditions: not given
For `N#Cc1c(Cn2ccc3c4c(ncc32)C(=O)N(O)CC4)ccc(F)c1Cl`, the logD was 1.7.
With `O=C1c2ncc3c(ccn3Cc3ccc(F)cn3)c2CCN1O` the logD was 0.6.
Work on `O=C(O)CCc1cn(Cc2ccc(F)cc2)c2cnc3c(c12)CCN(O)C3=O` yielded a logD of -0.74.
With `O=C1c2ncc3c(c(CCCN4CCOCC4)cn3Cc3ccc(F)cc3)c2CCN1O` the logD was 0.1.
`COCCN(C)S(=O)(=O)c1cn(Cc2ccc(F)cc2)c2cnc3c(c12)CCN(O)C3=O` gave a logD of 1.14.
For `O=C1c2ncc3c(c(COCC4CCOCC4)cn3Cc3ccc(F)cc3)c2CCN1O`, the logD was 1.83.
Work on `CN(O)C(=O)c1cc2c(CN3CCC[C@H]3C(N)=O)cn(Cc3ccc(F)cc3)c2cn1` yielded a logD of 1.7.
For `CN(O)C(=O)c1cc2ccn(Cc3ccc(F)cc3)c2cn1`, the logD was 2.04.
Work on `O=C1c2ncc3c(c(COCCc4ccccn4)cn3Cc3ccc(F)cc3)c2CCN1O` yielded a logD of 1.56.
In the case of `O=C1c2ncc3c(c(CN4CCCCC4)cn3Cc3ccc(F)cc3)c2CCN1O`, the logD is reported as 1.15.
`O=C1c2ncc3c(c(COCCCc4ccccn4)cn3Cc3ccc(F)cc3)c2CCN1O` gave a logD of 2.15.
`O=C1c2ncc3c(c(CCC(F)(F)F)cn3Cc3ccc(F)cc3)c2CCN1O` showed a logD of 2.32.
With `N#Cc1cc(F)ccc1Cn1ccc2c3c(ncc21)C(=O)N(O)CC3` the logD was 1.15.
With `O=C1c2ncc3c(c(CN4CCC(F)(F)C4)cn3Cc3ccc(F)cc3)c2CCN1O` the logD was 2.02.
In the case of `O=C1c2ncc3c(ccn3Cc3ccc(F)cc3)c2CCN1O`, the logD is reported as 1.39.
For `CC(C)OCCOCc1cn(Cc2ccc(F)cc2)c2cnc3c(c12)CCN(O)C3=O`, the logD was 2.12.
Work on `COCCN(C)Cc1cn(Cc2ccc(F)cc2)c2cnc3c(c12)CCN(O)C3=O` yielded a logD of 1.46.
With `CC(C)(O)CCc1cn(Cc2ccc(F)cc2)c2cnc3c(c12)CCN(O)C3=O` the logD was 1.67.
`CN(CCO)Cc1cn(Cc2ccc(F)cc2)c2cnc3c(c12)CCN(O)C3=O` showed a logD of 0.67.
In the case of `CN(C)S(=O)(=O)c1cn(Cc2ccc(F)cc2)c2cnc3c(c12)CCN(O)C3=O`, the logD is reported as 1.29.
With `O=C1c2ncc3c(ccn3Cc3ncc(F)cc3F)c2CCN1O` the logD was 0.77.
`O=C1c2ncc3c(c(COCc4ccccn4)cn3Cc3ccc(F)cc3)c2CCN1O` showed a logD of 1.63.
`CC1CCN(S(=O)(=O)c2cn(Cc3ccc(F)cc3)c3cnc4c(c23)CCN(O)C4=O)CC1` gave a logD of 2.14.
With `CC(=O)N(C)CCCc1cn(Cc2ccc(F)cc2)c2cnc3c(c12)CCN(O)C3=O` the logD was 0.76.
Compound `O=C1c2ncc3c(c(CCCOC4CCOCC4)cn3Cc3ccc(F)cc3)c2CCN1O` has a logD of 2.1.
Compound `CN(C)Cc1cn(Cc2ccc(F)cc2)c2cnc3c(c12)CCN(O)C3=O` has a logD of 0.89.
With `CN(Cc1cn(Cc2ccc(F)cc2)c2cnc3c(c12)CCN(O)C3=O)CC1CC1` the logD was 1.52.
`O=C1c2ncc3c(c(S(=O)(=O)N4CCCC4)cn3Cc3ccc(F)cc3)c2CCN1O` showed a logD of 1.63.
With `O=C1c2ncc3c(c(S(=O)(=O)N4CCOCC4)cn3Cc3ccc(F)cc3)c2CCN1O` the logD was 0.18.
`O=C1c2ncc3c(c(COCc4ccccc4F)cn3Cc3ccc(F)cc3)c2CCN1O` showed a logD of 2.47.

Experiment: Volume of distribution at steady state in dog at 1 mg/kg, iv and 4.2 mg/kg, po
Assay type: ADME, organism-based, Canis lupus familiaris
Conditions: in vivo, read-out: Vdss
`O=C1c2ncc3c(c(CN4CCCCC4)cn3Cc3ccc(F)cc3)c2CCN1O` gave a Vd of 6.7 L/kg.
